{"source": "patent US20110065632A1", "about": "“PHARMACEUTICAL COMPOSITIONS OF SOMATOSTATIN-DOPAMINE CONJUGATES” (priority 2008, published 2011)", "key": {"hUTII": {"target": "T1, hUTII (Homo sapiens, UniProt Q9UKP6)", "T1 sequence (Q9UKP6 1-389)": "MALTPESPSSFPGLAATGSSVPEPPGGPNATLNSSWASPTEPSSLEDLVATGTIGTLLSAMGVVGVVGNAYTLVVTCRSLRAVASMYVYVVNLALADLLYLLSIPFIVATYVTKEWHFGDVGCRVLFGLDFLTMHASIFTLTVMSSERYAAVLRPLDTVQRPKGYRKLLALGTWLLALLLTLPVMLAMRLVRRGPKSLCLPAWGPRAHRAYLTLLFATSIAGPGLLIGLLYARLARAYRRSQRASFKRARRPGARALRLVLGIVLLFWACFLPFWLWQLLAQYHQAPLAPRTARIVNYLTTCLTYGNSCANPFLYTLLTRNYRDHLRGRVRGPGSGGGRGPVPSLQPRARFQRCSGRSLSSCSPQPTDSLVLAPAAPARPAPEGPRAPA", "experiment": "hUTII inhibition constant", "assay_type": "binding", "conditions": "read-out: hUTII Ki", "description": "Using the discussed assays, the inhibition constants (Ki) for the five human somatostatin receptors (hSSTR1-hSSTR5) and the dopamine-2 receptor (hUTII and hDA2) were measured for the exemplified somatostatin-dopamine conjugates, as follows: […]"}, "hsst2": {"target": "T2, hsst2 (Homo sapiens, UniProt P30874)", "T2 construct": "expressed in transfected cells", "T2 sequence (P30874 whole entry)": "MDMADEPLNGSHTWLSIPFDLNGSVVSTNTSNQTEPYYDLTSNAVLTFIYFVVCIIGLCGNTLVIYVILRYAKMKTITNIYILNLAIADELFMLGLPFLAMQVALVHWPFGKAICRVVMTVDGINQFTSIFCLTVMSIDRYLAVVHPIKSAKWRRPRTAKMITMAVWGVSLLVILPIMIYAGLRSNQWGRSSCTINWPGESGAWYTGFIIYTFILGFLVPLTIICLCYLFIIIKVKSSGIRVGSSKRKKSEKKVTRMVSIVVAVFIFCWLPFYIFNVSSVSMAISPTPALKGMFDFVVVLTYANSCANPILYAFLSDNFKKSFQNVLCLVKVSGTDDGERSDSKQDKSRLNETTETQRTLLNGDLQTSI", "experiment": "Somatostatin receptor radioligand binding assay, hsst2", "conditions": "CHO-K1 membranes, [125I]MK-678; read-out: hsst2 Ki", "outline": "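Membranes from CHO-K1 cells stably expressing human SSTR2, in 10 mM Tris-HCl, incubated 90 min at 25 °C with 0.05 nM [125I]MK-678. Bound ligand collected by filtration on PEI-soaked GF/C filters; nonspecific binding defined with 1000 nM MK-678.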"}, "sst2": {"target": "T3, sst2 (Homo sapiens, UniProt P30874)", "T3 construct": "expressed in transfected cells; host or cells: HEK-293, transient", "T3 sequence (P30874 whole entry)": "as above", "experiment": "cAMP Responsive Element-Luciferase reporter gene assay, sst2-monotransfected HEK-293 cells", "assay_type": "cell-based", "conditions": "read-out: IC50 value of cAMP inhibition", "description": "(§1) A cAMP Responsive Element-Luciferase reporter gene assay in HEK-293 cells was used in this assay, wherein said HEK-293 cells were transiently transfected with D2 and/or sst2 cDNA. […] In sst2-monotransfected cells, the IC50 value of cAMP inhibition of Example 1 was 0.04 nM."}, "hDA2": {"target": "hDA2", "experiment": "Dopamine-2 receptor radioligand binding assay", "parameters": "species or system human", "conditions": "[3H]spiperone"}, "hsst3": {"target": "T4, hsst3 (Homo sapiens, UniProt P32745)", "T4 construct": "expressed in transfected cells", "T4 sequence (P32745 whole entry)": "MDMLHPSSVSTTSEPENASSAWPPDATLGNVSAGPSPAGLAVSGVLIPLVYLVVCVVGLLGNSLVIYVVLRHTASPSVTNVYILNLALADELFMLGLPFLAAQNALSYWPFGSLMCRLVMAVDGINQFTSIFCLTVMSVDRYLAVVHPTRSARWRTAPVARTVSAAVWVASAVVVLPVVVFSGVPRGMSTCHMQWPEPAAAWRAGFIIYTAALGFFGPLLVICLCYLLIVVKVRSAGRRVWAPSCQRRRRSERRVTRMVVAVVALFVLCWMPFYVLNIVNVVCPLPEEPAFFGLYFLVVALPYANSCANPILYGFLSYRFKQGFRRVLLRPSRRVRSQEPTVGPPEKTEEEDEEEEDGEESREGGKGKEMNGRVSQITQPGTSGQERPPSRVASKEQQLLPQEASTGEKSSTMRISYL", "experiment": "Somatostatin receptor radioligand binding assay, hsst3", "outline": "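Membranes from CHO-K1 cells stably transfected with each human SSTR subtype, incubated 90 min at 25 °C with 0.05 nM [125I-Tyr11]SS-14 in 50 mM HEPES pH 7.4 with BSA, MgCl2 and protease inhibitors; filtration read-out. Nonspecific binding with 1000 nM SS-14; Ki values reported.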"}, "D2": {"target": "T5, D2 (Homo sapiens, UniProt P14416)", "T5 construct": "expressed in transfected cells; host or cells: HEK-293, transient", "T5 sequence (P14416 whole entry)": "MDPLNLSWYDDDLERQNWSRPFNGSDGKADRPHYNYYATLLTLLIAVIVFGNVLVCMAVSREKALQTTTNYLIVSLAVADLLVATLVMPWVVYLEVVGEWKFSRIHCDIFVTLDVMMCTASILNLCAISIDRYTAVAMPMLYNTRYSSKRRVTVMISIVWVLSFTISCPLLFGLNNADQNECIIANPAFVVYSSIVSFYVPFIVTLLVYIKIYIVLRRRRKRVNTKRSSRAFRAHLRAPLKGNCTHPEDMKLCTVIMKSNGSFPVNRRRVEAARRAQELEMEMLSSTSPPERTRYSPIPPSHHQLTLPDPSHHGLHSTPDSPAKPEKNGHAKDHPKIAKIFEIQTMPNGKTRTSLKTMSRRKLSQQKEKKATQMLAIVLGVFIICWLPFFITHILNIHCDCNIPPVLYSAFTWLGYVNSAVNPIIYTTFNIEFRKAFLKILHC", "experiment": "cAMP Responsive Element-Luciferase reporter gene assay, D2-monotransfected HEK-293 cells", "assay_type": "cell-based", "conditions": "read-out: IC50 value of cAMP inhibition", "description": "as §1"}}, "data": [{"molecule": "CCCN1C[C@H](CSCC(=O)NCCCC[C@@H](NC(=O)CSC[C@@H]2C[C@@H]3c4cccc5[nH]cc(c45)C[C@H]3N(CCC)C2)C(=O)N[C@H]2CSSC[C@@H](C(=O)N[C@H](C(N)=O)[C@@H](C)O)NC(=O)[C@H](CC)NC(=O)[C@H](CCCCN)NC(=O)[C@@H](Cc3c[nH]c4ccccc34)NC(=O)[C@H](Cc3ccc(O)cc3)NC2=O)C[C@@H]2c3cccc4[nH]cc(c34)C[C@H]21", "note": "[Example 1, Dop2-DLys(Dop2)-cyclo[Cys-Tyr-DTrp-Lys-Abu-Cys]-Thr-NH2]", "values": [{"measurement": "Ki", "setting": "hUTII", "result": 509, "unit": "nM"}, {"measurement": "Ki", "setting": "hsst2", "result": 0.03, "unit": "nM"}, {"measurement": "IC50", "setting": "sst2", "result": 0.04, "unit": "nM"}, {"measurement": "Ki", "setting": "hDA2", "result": 15.8, "unit": "nM"}, {"measurement": "Ki", "setting": "hsst3", "result": 160, "unit": "nM"}, {"measurement": "IC50", "setting": "D2", "result": 0.02, "unit": "nM"}]}]}
